Data published in patent US8410119B2, “Fused-aryl and heteroaryl derivatives as modulators of metabolism and the prophylaxis and treatment of disorders related thereto” (Arena Pharmaceuticals, Inc., priority 2003, dated 2013).

Tests used:
RUP3 = target: T1, RUP3 (Homo sapiens, UniProt Q8TDV5); assay: RUP3 dose responses in melanophores; type: cell-based; conditions: melanophores transfected with RUP3 expression vector
T1 construct: read from the listing, own knowledge; expressed in transfected cells; host or cells: melanophores, electroporated with the RUP3 expression vector (pCMV)
T1 sequence (Q8TDV5 with tags, fused parts or gaps): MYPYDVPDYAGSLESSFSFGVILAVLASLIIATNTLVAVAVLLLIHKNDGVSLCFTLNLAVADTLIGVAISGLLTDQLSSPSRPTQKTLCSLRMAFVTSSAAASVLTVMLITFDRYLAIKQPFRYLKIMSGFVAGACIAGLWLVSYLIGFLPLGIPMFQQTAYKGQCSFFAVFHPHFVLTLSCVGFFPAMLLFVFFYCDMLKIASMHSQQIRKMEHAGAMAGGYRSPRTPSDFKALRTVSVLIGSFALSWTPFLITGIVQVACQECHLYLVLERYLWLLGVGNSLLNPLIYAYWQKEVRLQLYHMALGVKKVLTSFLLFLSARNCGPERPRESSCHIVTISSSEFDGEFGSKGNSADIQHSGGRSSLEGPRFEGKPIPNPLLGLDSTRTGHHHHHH
Method: Protocol for RUP3 Dose Responses in Melanophores
Melanophores are maintained in culture as reported by Potenza, M. N. and Lerner, M. R., in Pigment Cell Research, Vol. 5, 372-378, 1992 and transfected with the RUP3 expression vector (pCMV) using electroporation. Following electroporation, the transfected cells are plated into 96 well plates for the assay. The cells are then allowed to grow for 48 hours in order to both recover from the electroporation procedure and attain maximal receptor expression levels.
On the assay day, the growth medium on the cells is replaced with serum-free buffer containing 10 nM melatonin. The melatonin acts via an endogenous Gi-coupled GPCR in the melanophores to lower intracellular cAMP levels. In response to lowered cAMP levels, the melanophores translocate their pigment to the center of the cell. The net effect of this is a significant decrease in the absorbance reading of the cell monolayer in the well, measured at […].
After a 1-hour incubation in melatonin, the cells become completely pigment-aggregated. At this point a baseline absorbance reading is collected. Serial dilutions of test compounds are then added to the plate and compounds that stimulate RUP3 produce increases in intracellular cAMP levels. In response to these increased cAMP levels, the melanophores translocate their pigment back into the cell periphery. After one hour, stimulated cells are fully pigment-dispersed. The cell monolayer in the dispersed state absorbs much more light in the 600-650 nm range. The measured increase in absorbance compared to the baseline reading allows one to quantitate the degree of receptor stimulation and plot a dose-response curve.
The compounds in the above examples were screened using the melanophore assay.

Male Sprague Dawley rats = assay: Oral glucose tolerance test (oGTT) in rats; type: in vivo; conditions: rat, p.o.; for Mean % inhibition of glucose excursion: dextrose 2 g/kg, mean of six animals; for Effect on blood glucose after challenge with glucose: result in words
Method: In Vivo Effects of RUP3 Agonists on Glucose Homeostasis in Rats
A. Oral Glucose Tolerance Test (oGTT)
Male Sprague Dawley rats weighing approximately 200 g-250 g were fasted for 15 hours and randomly grouped (n=6) to receive a RUP3 agonist (Compounds A194, A214 or D4) at 3, 10 or 30 mg/kg. Compounds were delivered orally via a gavage needle (p.o., volume 3 mL/kg). At time 0, levels of blood glucose were assessed using a glucometer (Elite XL, Bayer), and rats were administered either vehicle (20% hydroxypropyl-beta-cyclodextrin) or test compound. Thirty minutes after administration of test compound, levels of blood glucose were again assessed, and rats were administered dextrose orally at a dose of 2 g/kg. Blood glucose measurements were then taken 30 min, 60 min, and 120 min after this time.

| Structure (SMILES) | EC50 (RUP3) [nM] | Mean % inhibition of glucose excursion (Male Sprague Dawley rats; dose 30 mg/kg) | Effect on blood glucose after challenge with glucose (Male Sprague Dawley rats) | Mean % inhibition of glucose excursion (Male Sprague Dawley rats; dose 10 mg/kg) |
| --- | --- | --- | --- | --- |
| CC(C)OC(=O)N1CCC(Oc2ncnc3c2cnn3-c2ccc(S(C)(=O)=O)cc2)CC1 [Compound A5, 4-[1-(4-Methanesulfonyl-phenyl)-1H-pyrazolo[3,4-d]pyrimidin-4-yloxy]-piperidine-1-carboxylic acid isopropyl ester] | 12.7 |  |  |  |
| CC(C)Oc1ccc(C(=O)N2CCC(Oc3ncnc4c3cnn4-c3ccc(S(C)(=O)=O)cc3F)CC2)nc1 [Compound A194, {4-[1-(2-Fluoro-4-methanesulfonyl-phenyl)-1H-pyrazolo[3,4-d]pyrimidin-4-yloxy]-piperidin-1-yl}-(5-isopropoxy-pyridin-2-yl)-methanone] |  | 15%, (30) | lowered blood glucose after challenge with glucose |  |
| CC(C)OC(=O)N1CCC(Sc2ncnc3c2cnn3-c2ccc(S(C)(=O)=O)cc2F)CC1 [Compound A214, 4-[-(2-Fluoro-4-methanesulfonyl-phenyl)-1H-pyrazolo[3,4-d]-pyrimidin-4-ylsulfanyl]-piperidine-1-carboxylic acid isopropyl ester] |  |  | lowered blood glucose after challenge with glucose | 33%, (10) |
| CC(C)(C)OC(=O)N1CCC(Oc2ncnc3c2ncn3-c2ccc(S(C)(=O)=O)nc2)CC1 [Compound B5, 4-[9-(6-Methanesulfonyl-pyridin-3-yl)-9H-purin-6-yloxy]-piperidine-1-carboxylic acid tert-butyl ester] | 59.1 |  |  |  |
| CC(C)(C)OC(=O)N1CCC(Oc2ncnc3c2nnn3-c2ccc(S(C)(=O)=O)cc2)CC1 [Compound C1, 4-[3-(4-Methanesulfonyl-phenyl)-3H-[1,2,3]triazolo[4,5-d]pyrimidin-7-yloxy]-piperidine-1-carboxylic acid tert-butyl ester] | 13 |  |  |  |
| CC(C)OC(=O)N1CCC(Oc2ncnc3c(-c4ccc(S(C)(=O)=O)cc4)noc23)CC1 [Compound D4, 4-[3-(4-methanesulfonyl-phenyl)-isoxazolo[4,5-d]pyrimidin-7-yloxy]-piperidine-1-carboxylic acid isopropyl ester] |  | 12%, (30) | lowered blood glucose after challenge with glucose |  |
